Key:
Format in all cases: physicochemical
[1] = Geometric particle size of emitted formulations by VMGD, laser diffraction (Example 6); conditions: 56 % trans
Description: Laser diffraction of dry powder formulations emitted from dry powder inhalers is a common methodology employed to characterize the level of de-agglomeration subjected to a powder. The methodology indicates a measure of geometric size rather than aerodynamic size as occurring in industry standard impaction methodologies. Typically, the geometric size of the emitted powder includes a volumetric distribution characterized by the median particle size, VMGD. Importantly, geometric sizes of the emitted particles are discerned with heightened resolution as compared to the aerodynamic sizes provided by impaction methods. Smaller sizes are preferred and result in greater likelihood of individual particles being delivered to the pulmonary tract. Thus, differences in inhaler de-agglomeration and ultimate performance can be easier to resolve with diffraction. In these experiments, an inhaler as specified in Example 3 and a predicate inhaler are tested with laser diffraction at pressures analogous to actual patient inspiratory capacities to determine the effectiveness of the inhalation system to de-agglomerate powder formulations. […] Reported in Table 5 are a VMGD and an efficiency of the container emptying during the testing. […]

[2] = Powder flowability (Hausner ratio, compressibility index, angle of repose, critical orifice testing)
Description: The compressibility index (Cl) can be calculated from the Hausner ratio (HR) as C1 = 100 × (1−(1/HR)). [formula]
FDKP microparticles either unmodified or containing a drug, for example insulin, constitute highly cohesive powders.

[3] = In vitro performance DPI 2 vs MEDTONE delivery system, laser diffraction and emitted mass (Example 7); conditions: fill weight 10 mg, 4 kPa
Description: This system includes dry powder formulations, pre-metered into single-use cartridges and inserted into a high resistance, breath-powered, re-usable MEDTONE(R) inhaler. […] In vitro powder performance for these systems was compared for various parameter of inhaler performance. For DPI 2 a single discharge per cartridge was used as compared to two discharges per cartridge in the MEDTONE(R) system.
Particle sizing by laser diffraction and quantification of emitted mass as described above were used in these experiments. A laser diffraction instrument (Sympatec HELOS) was adapted with a novel pressurized inhaler chamber to facilitate analysis of powder plumes. MTDS cartridges were discharged twice per determination versus once with DPI 2.

[4] = DPI 2, single discharge, 15 cartridges
[5] = MEDTONE® (MTDS), two discharges, 30 cartridges

O=C(O)/C=C/C(=O)NCCCCC1NC(=O)C(CCCCNC(=O)/C=C/C(=O)O)NC1=O (stereo not shown) [FDKP, bis-3,6-(N-fumaryl-4-aminobutyl)-2,5-diketopiperazine]
VMGD ([1]; DPI 2, SSA 55 m2/g, pressure drop 4 kPa): 6.800 micron
VMGD ([1]; MEDTONE®, SSA 55, 4 kPa): 21.200 micron
angle of repose [2]: 40 °
Ave. Geometric SD [3, 4]: 3.79 µm
Ave. VMGD [3, 4]: 6.84 µm
Ave. Geometric SD [3, 5]: 2.94 µm
Ave. VMGD [3, 5]: 21.21 µm

— patent EP2403490B1, “AN IMPROVED DRY POWDER DRUG DELIVERY SYSTEM” (MannKind Corporation, priority 2009, dated 2010)
